The results in this text go back to patent publication US20230064978A1, “CYCLIC PEPTIDE RECEPTOR LANTHIONINE SYNTHETASE C-LIKE PROTEIN (LANCL) AND USES THEREOF” (LATERAL IP PTY LTD, priority 2019, published 2023).

Bridges are numbered along the chain shown (N, C = ends). Where no end group is shown, it is not given here.

One experiment has as its system A549 cells. Put plainly: Confocal imaging of LAT9991F-PAL binding and LANCL1 co-localization, with siRNA knockdown and competitors, in A549 cells. The settings on record: for Competition of LAT9991F-PAL binding by excess competitor: competitor 25 μM. In kind it is cell-based. On the procedure:
(§1) A photoactivatable analog of LAT8881 (LAT9991F (SEQ ID NO:13)-PAL), was used to conduct the experiments. A549 or NCI-H358 cells were treated with LAT9991F-PAL at 2.5 μM during 30 minutes. Fluorescent signal was recorded after that LAT9991F-PAL was immobilized on its target(s) site by UV-crosslinking and the LAT9991F-PAL-target complexes were labeled with the green-fluorescent Alexa Fluor 488 alkyne dye by click-chemistry. Control cells were treated with the vehicle, dimethyl sulfoxide (DMSO), and with LAT9991F-PAL in combination with a large excess of the parent drug LAT8881 or other competitors, GSH, NSC61610 or ABA to evaluate, respectively, the non-specific fluorescent background and the specificity of the staining. For colocalization experiments, subsequently, immunofluorescence staining with an anti-LANCL1 or LANCL2 antibodies and an Alexa 568 (red) conjugated secondary antibody was performed. Images stacks of cells labeled with probes were collected and evaluated for the degree of colocalization of LAT9991F-PAL-target complexes and LANCL1 or LANCL2 using either the Measure Colocalization plugin in Metamorph or the JACoP plugin in ImageJ).
(§2) A549 or NCI-H358 cells (ATCC CCL-185 and ATCC CRL-5807, respectively) were cultured in appropriate medium containing 10% heat-inactivated FBS (Dutscher, #SV30160-036), 1% penicillin/streptomycin (Gibco, #15140-122) and maintained in a humidified 37° C. incubator with 5% CO2.
(§3) LAT9991F-PAL was dissolved in DMSO to make a 10 mM stock solution. Intermediate solutions at 25 μM and 2.5 μM were made in the culture medium from the 10 mM stock solutions of LAT8881 and LAT9991F-PAL, respectively. A two-fold dilution into PBS of each intermediate solution was used for cell treatment. A stock solution at 10 mM was prepared for the other competitors as GSH, NSC61610 and ABA. A final concentration at 25 μM was used for the assay.
(§4) A549 or NCI-H358 cells were seeded onto ibidiTreat Polymer Coverslips (Ibidi, #80826) at 2.5×10^5 cells/cm^2 in 200 μl of complete medium. After 24 hours, the medium was removed and cells were washed with PBS (Gibco, #10010049) and then pre-treated with the Taxol at 1 μM for 3 hours or with H2O2 25 μM for 2 hours. Cells were washed twice with PBS. Induced stress cells or control cells were then exposed to LAT9991F-PAL (2.5 μM) in PBS for 30 minutes, in the presence or absence of LAT8881 (25 μM), or the other compounds used as a competitor, and pre-incubated 10 minutes. After treatment, cells were washed with cold PBS and UV-irradiated (365 nm) in PBS for 20 min. After fixation with 4% paraformaldehyde and permeabilization (0.5% Triton/PBS) (Image-iT™ Fixation/Permeabilization Kit, ThermoFisher, #R37602), the bioorthogonal reaction with Alexa Fluor 488 Alkyne (1 μM) (ThermoFisher, #A10267) was performed at 25° C. using the Click-iT™ Cell Reaction Buffer Kit (ThermoFisher, #C10269) according to the manufacturer protocol. After click reaction, cells were washed twice with PBS, blocked with 3% BSA in PBS for 1 hour and stained with Hoechst 33342 dye (ThermoFisher, #H1399).
(§5) For colocalization experiments, cells were further incubated overnight at 4° C. with a mouse anti-LanCL1 antibody (Invitrogen, PAS-57-107) (dilution 1:1000) or LanCL2 (Atlas Antibodies HPA019711) (dilution 1:1000) in 3% BSA in PBS, washed twice with PBS, and then incubated respectively with a goat anti-mouse […] (Molecular Probes, #A21467) (dilution 1:800) for 1 h in 3% BSA in PBS. After three further washing steps with PBS, cells were embedded in Ibidi Mounting Medium (ibidi, #50001). The specimens were kept at 4° C. in the dark until analysis.
Images were acquired on an Axiovert200M (Zeiss) microscope using a CSU-W1 Yokogawa confocal unit. This microscope is equipped with a plan Apochromat X40 dry objective numerical aperture (NA) 0.95 and a Neofluar X100 oil immersion objective NA 1.45. Images were capture with an EMCCD camera (Prior, ProEM 1024×1024).

The next experiment concerns NCI-H358 cells. In words: Confocal imaging of LAT9991F-PAL binding and LANCL1 co-localization, with siRNA knockdown and competitors, in NCI-H358 cells. In kind it is cell-based. The settings on record: for Competition of LAT9991F-PAL binding by excess competitor: competitor 25 μM. On the procedure:
as §1, §2, §3
ibidiTreat Polymer Coverslips (Ibidi, #80826) were coated with serum during 1 hour at 37° C., followed by Laminin (100 μg\ml) (incubation for 1 hour at 37° C.) for NCI-H358 cells.
as §4, §5
Images were acquired on an Axiovert200M (Zeiss) microscope using a CSU-W1 Yokogawa confocal unit.

The target in a further experiment is T1, human recombinant LANCL1 (Homo sapiens, UniProt O43813).
T1 construct: purchased ABCAM ab181923; host or cells: E. coli
T1 sequence (O43813 with tags, fused parts or gaps): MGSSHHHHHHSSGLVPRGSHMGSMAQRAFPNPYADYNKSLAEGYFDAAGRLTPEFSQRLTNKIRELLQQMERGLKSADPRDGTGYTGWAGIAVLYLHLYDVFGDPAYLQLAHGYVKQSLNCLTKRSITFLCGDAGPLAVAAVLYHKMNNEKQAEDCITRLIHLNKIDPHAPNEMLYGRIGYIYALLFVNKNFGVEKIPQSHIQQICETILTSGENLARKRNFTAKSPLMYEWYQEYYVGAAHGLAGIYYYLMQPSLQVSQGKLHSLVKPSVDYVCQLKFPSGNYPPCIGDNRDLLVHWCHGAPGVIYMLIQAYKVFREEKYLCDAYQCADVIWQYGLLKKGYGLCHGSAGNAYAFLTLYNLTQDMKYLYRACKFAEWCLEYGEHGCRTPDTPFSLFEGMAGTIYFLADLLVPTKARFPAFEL
Put plainly: In-gel fluorescence: photolabelling of recombinant LANCL1 with PAL probes, with or without excess competitor. Format: binding. Conditions: for Inhibition of LAT9991-PAL binding to recombinant LANCL1 by excess competitor: probe LAT9991-PAL, excess unlabelled competitor. On the procedure: The in-gel fluorescence protocol can be briefly described as follows:
1. LANCL1 Labelling, Assay on 96 Well Plate, Volume of the Reaction 40 μl in PBS
3 μg/well of human recombinant LANCL1 (ABCAM catalog no. ab181923, 1 mg/ml; expressed in E. Coli and incorporating an N-terminal 23 amino acid hexaHis tag; UniProtKB/Swiss-Prot Accession no: O43813);
• Vehicle DMSO • ±LAT8881 (a cyclic peptide fragment of human growth hormone; SEQ ID NO:1) • SEQ ID NO:1) as competitor @ 25, 50, 100 or 200 μM, pre-incubation 10 min, 4 μl of a stock solution 10-fold concentrated • ±LAT9991-PAL, LAT7771-PAL or LAT9993-PAL probes @ 1 μM, incubation 30 min at room temperature on a plate agitator (protected from light), 4 μl of a stock solution @10 μM
• Irradiation @ 365 nm 20 min (4° C., on a support containing ice) Transfer 40 μl in a clean Eppendorf tube
• Reduction: DTT 10 mM, 30 min @ 56° C. • Alkylation: Iodoacetamide 30 mM, 45 min @ RT Click-iT AzideTamra of 60 μL samples
• Acetone Precipitation −20° C. ON • Dry pellet resuspended in 30 μL 1% SDS in 50 mM Tris-HCl pH 7.5 • Photolabeled LANCL1 was tagged with tetramethylrhodamine (TAMRA) azide @100 μM TAMRA azide by copper click chemistry using the Click-iT Protein Reaction Buffer Kit (ThermoFisher Scientific) during 30 minutes • Precipitation using the chloroform-methanol method, pellet was air-dried for 10 min at room temperature, resuspended in 30 μL SDS loading buffer (Bio Rad's XT Sample Buffer containing 2.5% v/v 2-mercaptoethanol) and heated (60° C., 30 min)
• SDS-PAGE (4-15% Criterion™ TGX Stain-Free™ Protein Gel, Bio Rad) • Analyzed by in-gel fluorescence scanning using a ChemiDoc™ MP Imaging System (Bio Rad) with a green LED light as an excitation source and a BP600/20 nm emission filter

In experiment [1] the test system is tissue homogenates of nerve from neuropathic animals. Put plainly: PAL cross-linking to nerve tissue homogenates and gel separation. In kind it is binding. The text has this:
Using a ligand driven approach, the present inventors utilized the photo-activatable cross-linking PAL from Evotec A.G. (Photo-Activated Labelling) technology that derivatizes the active cyclic peptides to allow UV-induced cross-linking to binding targets (described herein as peptide/SEQ ID NO:X-PAL). This allows subsequent detection in cells, gels of tissue isolates or in pull-down of the peptide/target complex for sequencing by mass spectroscopy (PALMS).
LAT9991-PAL was cross-linked to tissue homogenates of nerve from neuropathic animals.

Turning to `O=C(Nc1cccc(-c2nc3ccccc3[nH]2)c1)c1ccc(C(=O)Nc2cccc(-c3nc4ccccc4[nH]3)c2)cc1` [NSC61610, reference compound], the “Competition of LAT9991F-PAL binding by excess competitor” value (from here on “Competition of LAT9991F-PAL binding”) with A549 cells (SiLANCL1 A549 cells) and in the experiment on NCI-H358 cells (SiLANCL1 NCI-H358 cells) was “strongly competed off” each time.
For `N[C@@H](CCC(=O)N[C@@H](CS)C(=O)NCC(=O)O)C(=O)O` [glutathione, reference compound], the “Competition of LAT9991F-PAL binding” value with A549 cells (SiLANCL1 A549 cells) and with NCI-H358 cells (SiLANCL1 NCI-H358 cells) was “partially competed off” in each case.
For CRIIHNNNC [LAT7771], in the experiment with human recombinant LANCL1, the “Inhibition of LAT9991-PAL binding to recombinant LANCL1 by excess competitor” value is on record as “inhibited”. For the same compound, the “Competition of LAT9991F-PAL binding” value with A549 cells (SiLANCL1 A549 cells) and in the experiment on NCI-H358 cells (SiLANCL1 NCI-H358 cells) was “partially competed off” in each case.
With “LAT9991F-PAL: A photoactivatable analog of LAT8881 (LAT9991F (SEQ ID NO:13)-PAL) (CRSVEGSCGF; disulfide 1-8 (inferred); also: PAL cross-linking group, site not given here)”, the “Co-localization of LANCL1 and probe binding” value in the experiment on A549 cells (A549 cells, confocal microscopy, probe 2.5 μM) is “co-localization”; in the experiment on NCI-H358 cells (NCI-H358 cells, confocal microscopy, probe 2.5 μM), “co-localization”. Moreover, the “Co-localization of LANCL1 and probe after siRNA knockdown of LANCL1” value in the experiment with A549 cells (SiLANCL1 A549 cells) and in the experiment with NCI-H358 cells (SiLANCL1 NCI-H358 cells) was “lost” each time. Also, in the experiment with A549 cells (siLANCL1 A549 cells, H2O2 25 μM 2 hours or Taxol 1 μM 3 hours, vs SiControl), the “Level of probe binding in siLANCL1 cells following induced oxidative stress” value is reported as “less intense as compared to control cells”. Moreover, the “Level of probe binding in siLANCL1 cells following stress” value in the experiment on NCI-H358 cells (siLANCL1 NCI-H358 cells, vs control cells) is listed as “less intense as compared to control cells”.
As for “LAT9993S-PAL: LAT9993S (SEQ ID NO:44) derivatized with the PAL photo-activatable cross-linking group (SCRSRPVESSCS; disulfide 2-11 (inferred); also: ['PAL photo-activatable cross-linking group, structure and site not given here'])”, the “Binding of PAL probe to recombinant LANCL1” value with human recombinant LANCL1 (in-gel fluorescence after UV (365 nm) cross-linking) was “bound to recombinant LANCL1”. The “Cross-linking of PAL probe to tissue homogenates of nerve from neuropathic animals” value in experiment [1] is “shown to cross-link”. For the same compound, the “Molecular weight ranges of targets stained after gel separation” value in experiment [1] (PAL probe cross-linked to nerve homogenates) is “˜12-15 kD, ˜37 kD and ˜50 kD”.
For SCRSRPVESSCS [LAT9993S], the “Inhibition of LAT9991-PAL binding to recombinant LANCL1 by excess competitor” value with human recombinant LANCL1 is reported as “inhibited”. The “Competition of LAT9991F-PAL binding” value in the experiment with A549 cells (SiLANCL1 A549 cells) and with NCI-H358 cells (SiLANCL1 NCI-H358 cells) was “partially competed off” throughout.
